Source: US10376558B2, “Method and compositions for synchronizing time of insemination in gilts” (UNITED-AH II, LLC, priority 2012, dated 2019)

Columns and labels:
Type in all cases: in vivo, swine
gilts [1] = assay: Example 1: ovulation monitoring by transrectal ultrasonography after triptorelin gel at 96, 120 or 144 h after last MATRIX feeding; details: raw average, PTK 1-07 (rep 3); for % of Sows Ovulating: 200 mcg T at 120 h
Method: All gilts were individually fed MATRIX® as a top-dress for 14 days at the recommended rate of 15 mg/gilt/day. Gilts were withdrawn from MATRIX® feeding (last top feed in the morning on Day 0) and allotted to treatments. Controls were treated with a 1.2% methylcellulose gel formulation without triptorelin at 96 hours following MATRIX® withdrawal (last top-dress). The remaining gilts received 200 mcg triptorelin, as the acetate, in a 1.2% methylcellulose gel formulation intravaginally at various times after MATRIX® withdrawal. The four treatments were: 1) vehicle gel (VG) treatment at 96 hours after MATRIX® withdrawal, 2) triptorelin gel (TG) treatment at 96 hours after MATRIX® withdrawal, 3) TG treatment at 120 hours after MATRIX® withdrawal and 4) TG treatment at 144 hours after MATRIX® withdrawal. All gilts were monitored for their estrous and ovulatory status as described below. Gilts included in replicate 1 were selected from terminal line commercial production gilts located in grow/finish barns. Sexual maturity, as indicated by one or more estrous periods, was not verified prior to the start of MATRIX® feeding. Gilts included in replicate 2 were selected from a maternal line gilt population. Sexual maturity was verified by at least one estrous period verified and recorded prior to starting MATRIX® feeding.
The ovulatory status of all gilts was monitored by transrectal ultrasonography. For replicate one, ovulation was monitored two times on Day 5, then three times a day from Day 6 to Day 8. For replicate two, ovulation was monitored three times a day from Day 5 to Day 8. An Aloka 500 ultrasound machine with a 7.5 MHz linear array transducer attached to a fixed-angle PVC stabilizing rod to facilitate insertion into the rectum was used for this purpose. The transducer and PVC rod were coated with a gynecological lubricant and gently inserted into the rectum until the ovaries were visualized, one at a time. The diameters of the three largest follicles were recorded (to the nearest 0.1 mm) at each scanning. A gilt was declared to have ovulated when the number of large follicles (≥6.5 mm) fell to less than 3.
(§1) A single 2 mL dose of triptorelin gel or vehicle gel was deposited within approximately 1-2 cm posterior to the cervix with a catheter similar to those used for artificial insemination. The dose was delivered using a standard multi-dose applicator attached to the catheter. A new disposable sheath, which surrounds the catheter, was used for each gilt.
Data were analyzed using the Mixed Models procedures of SAS. Models included main effects of time of treatment following the last feeding of MATRIX®, replicate, and treatment by replicate interaction. Differences between treatments were tested on least squares means estimates using the T test at P<0.05. Data for analysis were tested for assumptions of data normality.

LH = assay: Example 5: serum LH surge after triptorelin gel (jugular blood sampling); details: for Magnitude of LH surge: maximum serum LH concentration; for Onset of LH surge / Time of maximum LH conc.: relative to time of triptorelin gel treatment; for Time of maximum LH conc.: in h (unit assumed); for Gilts, which displayed a LH surge: number of gilts
Method: (§2) All gilts were individually fed MATRIX® as a top-dress for 14 or 15 days at the recommended rate of 15 mg/gilt/day. Gilts were withdrawn from MATRIX® feeding (last top-dress in the morning on Day 0) and allocated to each of the following treatments. Controls were vehicle gel treated (vehicle gel without triptorelin) at 120 (+/−2) hours following MATRIX® withdrawal (last top dress). The other gilts were given 100, 200 or 400 mcg triptorelin as the acetate in a methylcellulose gel formulation 120 (+/−2) hours following MATRIX® withdrawal. The four treatments were:
A catheter was inserted non-surgically into the jugular vein (Kraeling et al. 1982) of a subpopulation of gilts in each treatment group (vehicle gel, n=8; 100 mcg triptorelin, n=6; 200 mcg triptorelin, n=7 and 400 mcg triptorelin, n=6). Ten mL blood samples were collected every 15 minutes for one hour prior to treatment, immediately following treatment (0) and at 0.5, 1, 2, 4, 6, 12, 18, 24, 36 and 48 hours after treatment. Blood samples were maintained at 4° C. until centrifuged at 800×g for 15 minutes within 12 hours of collection. The resulting serum was stored frozen until assayed for LH using validated procedures for pig serum (Kesner et al., 1987 and Kraeling et al., 1982). Onset, duration, and magnitude of the LH surge were analyzed. The LH data were analyzed with the General Linear Models procedure of SAS. Differences between treatments were tested on least squares means estimates using the T test at P<0.05. Onset of the LH surge is when serum LH concentration is greater than or equal to two standard deviations of the mean of the pre-treatment serum LH concentrations. Duration of the LH surge is the period between onset and when serum LH concentration is again less than or equal to two standard deviations of the mean of the pre-treatment serum LH concentrations. Magnitude of the LH surge is the maximum serum LH concentration reached during the LH surge.
as §1

gilts [2] = assay: Example 5: estrus detection after 100, 200 or 400 mcg triptorelin gel; details: raw average, PTK 2-07
Method: as §2
For post-treatment estrus detection, gilts were housed in individual pens. Boars were housed in separate rooms, and/or at least 12 m away and downwind. To elicit signs of estrus, a mature boar was walked slowly in the alley in front of the gilts' crates, exposing each test gilt to visual, auditory and olfactory signals from the boar for up to 5 minutes. In keeping with standard practice at commercial farms, while the boar was near the front of the gilt's crate, estrus was tested by an experienced person applying back pressure to the midsection of the gilt combined with side rubbing. Estrus was confirmed when a gilt stood rigidly to the back pressure, with no vocalization and with some indication of an ear reflex. Gilts were not exposed to boars during the first three days after withdrawal of MATRIX® (Day 0 to Day 2). Estrus detection was performed daily on all gilts from Day 3 to Day 7.
as §1

gilts [3] = assay: Example 5: ovulation monitoring by transrectal ultrasonography after 100, 200 or 400 mcg triptorelin gel at 120 h post-MATRIX; details: 400 mcg T (n = 6 catheterized gilts)
[4] = 200 mcg T at 120 h after MATRIX withdrawal
[5] = 100 mcg T (n = 6), Least Squares Mean ± SE
[6] = 200 mcg T (n = 7), Least Squares Mean
[7] = 400 mcg T (n = 6), Least Squares Mean ± SE
[8] = 100 mcg T at 120 h after MATRIX withdrawal
[9] = 400 mcg T at 120 h after MATRIX withdrawal

## CC(C)C[C@H](NC(=O)[C@@H](Cc1c[nH]c2ccccc12)NC(=O)[C@H](Cc1ccc(O)cc1)NC(=O)[C@H](CO)NC(=O)[C@H](Cc1c[nH]c2ccccc12)NC(=O)[C@H](Cc1c[nH]cn1)NC(=O)[C@@H]1CCC(=O)N1)C(=O)N[C@@H](CCCNC(=N)N)C(=O)N1CCC[C@H]1C(=O)NCC(N)=O [T, pGlu-His-Trp-Ser-Tyr-D-Trp-Leu-Arg-Pro-Gly-NH2]
Gilts [1]; 128 h post-MATRIX, 8 h post-T
  % of Sows Ovulating: 0.0%
Gilts [1]; 136 h post-MATRIX, 16 h post-T
  % of Sows Ovulating: 10.0%
Gilts [1]; 144 h post-MATRIX, 24 h post-T
  % of Sows Ovulating: 30.0%
Gilts [1]; 152 h post-MATRIX, 32 h post-T
  % of Sows Ovulating: 70.0%
Gilts [1]; 160 h post-MATRIX, 40 h post-T
  % of Sows Ovulating: 80.0%
Gilts [1]; 168 h post-MATRIX, 48 h post-T
  % of Sows Ovulating: 90.0%
Gilts [1]; 176 h post-MATRIX, 56 h post-T
  % of Sows Ovulating: 100.0%
Gilts [1]; [4]
  Interval from MATRIX Withdrawal to Ovulation: 153.6
LH; [5]
  Duration of LH surge: 19 ± 2
  Magnitude of LH surge: 3.94 ± 1.22
  Onset of LH surge: 4 ± 3
  Time of maximum LH conc.: 11 ± 7
LH; 100 mcg T in gel at 120 h post-MATRIX (n = 6 catheterized gilts)
  Gilts, which displayed a LH surge: 4
LH; [6]
  Duration of LH surge: 18
  Magnitude of LH surge: 8.98
  Onset of LH surge: 0.5
  Time of maximum LH conc.: 4
LH; 200 mcg T in gel at 120 h post-MATRIX (n = 7 catheterized gilts)
  Gilts, which displayed a LH surge: 1
LH; [7]
  Duration of LH surge: 17 ± 4
  Magnitude of LH surge: 11.65 ± 12.35
  Onset of LH surge: 4 ± 4
  Time of maximum LH conc.: 12 ± 4
LH; 400 mcg T in gel at 120 h post-MATRIX (n = 6 catheterized gilts)
  Gilts, which displayed a LH surge: 5
Gilts [2]; [8]
  Estrous Expression (%): 75.0%
  Interval from MATRIX withdrawal to Estrus: 134.4 h
Gilts [2]; [4]
  Estrous Expression (%): 81.0%
  Interval from MATRIX withdrawal to Estrus: 136.9 h
Gilts [2]; [9]
  Estrous Expression (%): 86.4%
  Interval from MATRIX withdrawal to Estrus: 133.9 h
Gilts [3]; after treatment
  Percentage ovulated by 48 hours: 100%
Gilts [3]; relative to time of triptorelin gel treatment, Least Squares Mean ± SE
  Time at which ovulation detected: 40 ± 8 h
